Where a name gives a salt, the structure may show the parent alone.

For test [1], the target named is T1, human neutrophil elastase (Homo sapiens, UniProt P08246).
T1 sequence (P08246 30-267): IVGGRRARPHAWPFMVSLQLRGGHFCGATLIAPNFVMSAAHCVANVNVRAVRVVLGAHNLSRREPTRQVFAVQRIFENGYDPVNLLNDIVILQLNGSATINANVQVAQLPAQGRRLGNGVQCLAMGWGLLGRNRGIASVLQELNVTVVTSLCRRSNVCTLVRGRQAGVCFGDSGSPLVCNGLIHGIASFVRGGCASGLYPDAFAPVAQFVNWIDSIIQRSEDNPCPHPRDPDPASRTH
As to the kind of experiment: In vitro assay of human neutrophil elastase (HNE). Format: biochemical. The settings on record: 118 nM purified human neutrophil elastase, pH 8.6, 15 min incubation at 30° C., MeO-succinyl-alanyl-alanyl-prolyl-valyl-p-nitroanilide substrate; read-out: HNE IC50. An outline of the steps:
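Residual activity was taken as the 10 min rate of absorbance rise at 405 nm after adding 0.6 mM MeO-succinyl-AAPV-p-nitroanilide. Curve fitting of activity against concentration gave IC50.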

A further test concerns Intracellular elastase. As to the kind of experiment: Oral in vivo model using IL-8 induced lung infiltrates for the assessment of intracellular elastase inhibition (hamster test). Particulars: effective dose of less than 40 mg/kg, IL-8 intratracheal. The method, then:
An Oral in vivo Model Using IL-8 Induced Lung Infiltrates For the Assessment of Intracellular Elastase Inhibition
Adult hamsters (100-150 g) are randomised into groups (n=4) and fasted overnight. Under gaseous anaesthetic (3% isofluorane) animals are dosed orally with 1 mL/100 g water as vehicle or containing predissolved compounds. Either at the same time, or subsequently under anaesthetic, animals are dosed intratracheally with 1 ug recombinant human IL-8 in 100 uL sterile saline. Six hours after IL-8 dosing animals are sacrificed using intrapertoneal pentobarbitone. The lungs are ravaged with 2×2.5 mL sterile saline and femurs are removed by dissection.
Intracellular elastase is prepared from neutrophils collected by lavage and from femoral bone marrow. This is achieved by sonication of the neutrophils and centrifugation to yield intracellular granules. These are disrupted by freeze/thawing and sonication. Elastase and myeloperoxidase assays are then performed on these samples to assess the efficacy of the compounds and to normalise for neutrophil recovery.

The term IC50 denotes the concentration needed to halve the response being measured. Turning to `CCC[C@H]1C(=O)N(S(C)(=O)=O)[C@H]2CCN(C(=O)/C=C/CN3CCCCC3)[C@H]12` (relative stereo) [Example 57, rel-(3R,3aR,6aS)-1-Methanesulfonyl-4-(4-piperidin-1-yl-but-2-(E)-enoyl-3-propyl-hexahydro-pyrrolo[3,2-b]pyrrol-2-one hydrochloride], in test [1], the IC50 stood at 27 nM. Moreover, in the test on Intracellular elastase, the duration of effect result is “at least 6 hours”.

In the case of `CCC[C@H]1C(=O)N(S(C)(=O)=O)[C@H]2CCN(C(=O)CCCCCN3CCOCC3)[C@H]12.O=C(O)C(O)C(O)C(=O)O` (relative stereo) [Example 58, rel-(3R,3aR,6aS)-1-Methanesulfonyl-4-(6-morpholin-4-yl-hexanoyl)-3-propylhexahydro-pyrrolo[3,2-b]pyrrol-2-one 2,3-dihydroxysuccinate], the IC50 in test [1] was 72 nM. The duration of effect entry in the test on Intracellular elastase was “at least 6 hours”.

As for `CCC[C@H]1C(=O)N(S(C)(=O)=O)[C@H]2CCN(C(=O)CCCCCN3CCCCCC3)[C@H]12` (relative stereo) [Example 59, hydrochloride], in test [1], the IC50 turned out to be 39 nM. For the same compound, the duration of effect entry in the test on Intracellular elastase was “at least 6 hours”.

As to `CC(C)[C@H]1C(=O)N(S(C)(=O)=O)[C@H]2CCN(C(=O)CCCCCN3CCCCCC3)[C@H]12` (relative stereo) [Example 60, rel-(3R,3aR,6aS)-4-(6-Azepin-1-yl-hexanoyl-3-isopropyl-1-methanesulfonyl)-hexahydro-pyrrolo[3,2-b]pyrrol-2-one hydrochloride], the IC50 in test [1] stood at 47 nM. The duration of effect entry in the test on Intracellular elastase is on record as “at least 6 hours”.

With `CC(C)[C@H]1C(=O)N(S(C)(=O)=O)[C@H]2CCN(C(=O)CCN3CCCCC3)[C@H]12` (relative stereo) [Example 61, rel-(3R,3aR,6aS)-3-isopropyl-1-methanesulfonyl-4-(3-piperidin-1yl-propionyl-hexahydro-pyrrolo[3,2-b]pyrrol-2-one hydrochloride], the IC50 in test [1] was 242 nM. Besides, the duration of effect entry with Intracellular elastase is listed as “at least 6 hours”.

Consider `CCC[C@H]1C(=O)N(S(C)(=O)=O)[C@H]2CCN(C(=O)c3ccc(CN4CCCCC4)cc3)[C@H]12` (relative stereo) [Example 62, rel-(3R,3aR,6aS)-1-Methanesulfonyl-1-4-(4-piperidin-1-ylmethyl-benzoyl)-3-propyl-hexahydro-pyrrolo[3,2-b]pyrrol-2-one], for which the IC50 in test [1] stood at 10 nM. Moreover, the duration of effect result in the test on Intracellular elastase is on record as “at least 6 hours”.

Turning to `CCC[C@H]1C(=O)N(S(C)(=O)=O)[C@H]2CCN(S(=O)(=O)c3ccc(NC(C)=O)cc3)[C@H]12` (relative stereo) [Example 63, rel-N-[4-(4-Methanesulfonyl-5-oxo-6R-propyl-hexahydro-(3aS,6aR)-pyrrolo[3,2-b]pyrrole-1-sulfonyl)phenyl]-acetamide], in test [1], the IC50 worked out at 6 nM. The duration of effect entry in the test on Intracellular elastase is recorded as “at least 6 hours”.

As to `CC(C)[C@H]1C(=O)N(S(C)(=O)=O)[C@H]2CCN(C(=O)/C=C/CN3CCCCCC3)[C@H]12` (relative stereo) [Example 136, hydrochloride], the 50% inhibitory concentration (IC50) in test [1] stood at 22 nM. Further, in the test with Intracellular elastase, the duration of effect entry is “at least 6 hours”.

Take `CC(C)[C@H]1C(=O)N(S(C)(=O)=O)[C@H]2CCN(C(=O)/C=C/CNC3CC3)[C@H]12.Cl` (relative stereo) [Example 137, rel-(3R,3aR,6aS)-4-(4-Cyclopropylamino-but-2E-enoyl)-3-isopropyl-1-methanesulfonyl-hexahydro-pyrrolo[3,2-b]pyrrol-2-one hydrochloride]: the IC50 in test [1] turned out to be 45 nM. Moreover, the duration of effect result in the test on Intracellular elastase was “at least 6 hours”.

Consider `CC(=O)N1CCN(C/C=C/C(=O)N2CC[C@H]3[C@H]2[C@@H](C(C)C)C(=O)N3S(C)(=O)=O)CC1.Cl` (relative stereo) [Example 138, rel-(3R,3aR,6aS)-4-[4-(4-Acetyl-piperazin-1-yl)-but-2E-enoyl]-3-isopropyl-1-methanesulfonyl-hexahydro-pyrrolo[3,2-b]pyrrol-2-one hydrochloride], for which the IC50 in test [1] stood at 42 nM. Also, in the test with Intracellular elastase, the duration of effect entry was “at least 6 hours”.
